# Data: patent US5514662A, “Use of amphotericin B derivatives as protease inhibitors” (priority 1991, dated 1996)
# What was measured:
# [1] = tested on: viral antigen p24; assay: Expression of soluble viral antigen p24 in HIV-1 infected Jurkat and CEM cells; format: cell-based
# Description: For the infection, fresh Jurkat or CEM type cells are centrifuged and the pellet is incubated for 2 hours at 37° C. with the viral preparation (10000 cpm of reverse transcriptase activity/10^6 cells, which corresponds to a multiplicity of infection of 0.04 to 0.1). The cells are then washed and resuspended (0.5×10^6/ ml) in fresh culture medium. Reverse transcriptase activity is determined at specific times after the infection, using the acellular infected cell supernatant.
# The viral antigen p24 was quantified in the infected-cell supernatant by radioimmunological assay using the procedure recommended by the manufacturer (ABBOTT, Diagnostics Division).
# The expression of the soluble viral antigen p24 was investigated at the same time as the reverse transcriptase activity, in the cell culture supernatants.
# The AmB treatment is carried out under the same conditions as the DABF-AmB treatment.
# In another experiment, 10 μM of DABF-AmB are added either during pretreatment 24 hours before the infection, or alternatively during the 2-hour inoculation stage, or alternatively during continuous treatment, as described above, for 12 days following the infection.
# [2] = tested on: human thymocytes; assay: Distribution of CD4 and CD8 cells in uninfected activated thymocytes; format: cell-based
# Description: Human thymuses were obtained during corrective heart surgery operations on 3 to 7 year old children. The tissues were cut into fragments and the red blood cells were removed by treating with […] buffer. After washing in PBS buffer, cellular suspensions were prepared in an RPMI 1640 medium containing 10% of human serum type […]. Dead cells were removed by passing over a sterile nylon wool column.
# The cells were infected with HIV LAV/BRU as indicated above in the general procedures, and then re-inoculated in the presence of PHA, of anti-CD2 or anti-CD3 antibodies and of IL2 and cultured for 10 days at a rate of 1×10^7 cells/ml. After 10 days, viral production was evaluated by measuring the RT activity in the supernatants and the distribution of CD4/CD8 was evaluated by double fluorescence flow cytometry by means of FITC-labelled anti-CD4 antibodies (OKT4) and phycoerythrin-labelled anti-CD8 antibodies (OKT8). DABF-AmB was added to the cultures immediately after infection and maintained during the entire duration of the culture.
smiles,measurement,setting,value
"C[C@@H]1[C@H](O)[C@@H](C)/C=C/C=C/C=C/C=C/C=C/C=C/C=C/[C@H](O[C@@H]2O[C@H](C)[C@@H](O)[C@H](NCC(=O)[C@@H](O)[C@@H]3OC(c4ccccc4)OC[C@H]3O)[C@@H]2O)C[C@@H]2O[C@](O)(C[C@@H](O)C[C@@H](O)[C@H](O)CC[C@@H](O)C[C@@H](O)CC(=O)O[C@H]1C)C[C@H](O)[C@H]2C(=O)O (stereo partly drawn) [DABF-AmB, 1-deoxy-1-amino-4,6-O-benzylidene-D-fructosyl-AmB]",inhibition of p24 secretion,[1]; 10 μM added during the 2-hour inoculation stage,does not bring about any significant inhibition
same,inhibition of p24 secretion,[1]; 10 μM added prior to infection (24 hours pretreatment),does not bring about any significant inhibition
same,minimal effective concentration,"[1]; Human immunodeficiency virus 1, 288 h, read-out: concentration for significant inhibition of p24",> 5 µM
same,efficacy on the multiplication of HIV compared with AmB,"[1]; p24, 10 μM, 4 and 8 days",substantially greater than that of AmB
same,distribution of the CD4 and CD8 cells in uninfected thymocytes,"[2]; even at 10 μM, PHA, anti-CD2 or anti-CD3 activated",does not significantly modify
same,CD4+ CD8+ population in uninfected thymocytes,[2]; up to 10 μM,slight increase
